Patent US7842488B2, “Polynucleotides encoding a human 3-phosphoinositide- dependent protein kinase” (Medical Research Council, priority 1997, dated 2010)

Assays:
PDK1 [1] = experiment: PDK1 assay: activation of GST-PKBα by purified PDK1 with phospholipid vesicles; assay type: biochemical, rabbit; details: for activation of PDK1 (in words) / fold-activation of GST-PKBα (PDK1 activity): lipid 10 μM in vesicles of 100 μM PtdCho, 100 μM PtdSer, 30 min at 30° C.; for order of level of activation of the 3-phosphoinositide-dependent kinase (most effective first): rabbit skeletal muscle PDK1, FIG. 6
Experimental: (§1) Assay of PDK1. The assay was carried out in two stages; in the first, GST-PKBα was incubated with PDK1 in the presence of MgATP and phospholipid vesicles to permit activation of GST-PKBα.
(§2) After 10 min at 30° C., the reactions were terminated by spotting the reaction mixture on to p81 phosphocellulose paper. The papers were washed in phosphoric acid and analysed as described previously. […] The basal GST-PKBα activity is the activity measured in the absence of PDK1.

GST-ΔPH-PDK1 = molecular target: T1, GST-ΔPH-PDK1 (Homo sapiens, UniProt O15530); experiment: GST-ΔPH-PDK1 assay: activation of GST-PKBα; assay type: biochemical; details: lipid 10 μM in PtdCho/PtdSer vesicles
T1 construct: expressed as a GST-fusion protein in 293 cells (GST-ΔPH-PDK1, residues 1-450); made in house; host or cells: human embryonic kidney 293 cells (pEBG-2T)
Experimental: FIG. 15. Role of the PH domains of PKBα and PDK1. […] The assays were terminated by making the incubations 1% (by vol) in Triton X-100 as in Example 1, and the increase in specific activity of GST-PKBα was determined. The basal activity of GST-PKBα was 2.5 U/mg and that of GST-ΔPH-PKBα was 8 U/mg. At the high concentration of GST-PDK1 used in this assay the rate of activation of full length wild type GST-PKBα is not linear with time whereas the activation of GST-ΔPH-PKBα is linear. When the experiments are carried out at 20-fold lower concentrations of GST-PDK1 a similar extent of activation of wild-type GST-PKBα is achieved as that shown in the figure for GST-ΔPH-PKBα by 2.3 nM GST-PDK1. (B) as in (A) except that 0.5 μg of GST-PKBα was incubated with 2.5 nM […] in the presence of phospholipid vesicles containing 100 μM PtdCho, 100 μM PtdSer and 10 μM of either, sn-1-stearoyl-2-arachidonyl-D-PtdIns(3,4,5)P3 (Track 1); sn-1-stearoyl-2-arachidonyl-L-PtdIns(3,4,5)P3 (Track 2), sn-1,2 di-palmitoyl-D-PtdIns(3,4,5)P3 (Track 3), sn-1,2 di-palmitoyl-D-PtdIns(3,4,5)P3 (Track 4), PtdIns(4,5)P2 (purified from Folch brain fraction Track 5) and sn-1,2 di-palmitoyl-D-PtdIns-3P (Track 6). The results are presented as the increase in the specific activity of GST-PKBα (U/mg), (±SEM for 6-9 determinations, three independent experiments), relative to a control incubation in which GST-PDK1 is omitted.
Assay of GST-PDK1 and GST-DSTPK61 activity. GST-PDK1 and GST-DSTPK61 were diluted appropriately in Buffer B containing 1 mg/ml bovine serum albumin, and assayed for their ability to activate and phosphorylate GST-PKBα [21]. One unit of PDK1 activity was defined as that amount required to increase the basal activity of GST-PKBα by 1 unit of activity in one min. One unit of GST-PKBα activity was that amount of enzyme required to catalyse the phosphorylation of 1 nmol of the peptide RPRAATF (SEQ ID NO: 9) in 1 min in an assay containing 0.1 mM RPRAATF (SEQ ID NO: 9)). […]

GST-PDK1 = molecular target: T2, GST-PDK1 (Homo sapiens, UniProt O15530); experiment: GST-PDK1 assay: activation and phosphorylation of GST-PKBα; assay type: biochemical; details: for activation and phosphorylation of GST-PKBα by GST-PDK1 (in words): lipid 10 μM in PtdCho/PtdSer vesicles
T2 construct: Residues 52-556 of PDK1 were expressed in human embryonic kidney 293 cells; made in house; host or cells: human embryonic kidney 293 cells (pEBG2T)
T2 sequence (O15530 52-556): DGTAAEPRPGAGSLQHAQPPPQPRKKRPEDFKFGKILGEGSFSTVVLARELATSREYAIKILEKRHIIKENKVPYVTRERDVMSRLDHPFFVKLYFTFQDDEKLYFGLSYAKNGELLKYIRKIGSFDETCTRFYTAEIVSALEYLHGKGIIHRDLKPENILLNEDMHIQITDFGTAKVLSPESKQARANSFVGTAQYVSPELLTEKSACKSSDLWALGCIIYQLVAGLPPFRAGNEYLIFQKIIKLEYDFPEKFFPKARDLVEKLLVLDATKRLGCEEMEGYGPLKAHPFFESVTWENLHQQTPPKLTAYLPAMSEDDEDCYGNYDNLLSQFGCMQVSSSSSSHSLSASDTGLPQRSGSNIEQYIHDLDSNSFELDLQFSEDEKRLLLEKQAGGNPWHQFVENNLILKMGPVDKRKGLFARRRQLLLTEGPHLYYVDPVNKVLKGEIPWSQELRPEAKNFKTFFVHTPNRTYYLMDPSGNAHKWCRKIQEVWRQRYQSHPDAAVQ
Experimental: (§3) FIG. 12. […] In panels A and C, the assays were terminated by making the incubations 1% (by vol) in TRITON X-100™ (see Ref 21), and the increase in specific activity of GST-PKBα was determined. In panels B and D, the reactions were terminated by making the solutions 1% in SDS, the samples were subjected to SDS/polyacrylamide gel electrophoresis, and the phosphorylation was assessed by autoradiography of the Coomassie blue-stained band corresponding to GST-PKBα.
(§4) One unit of PDK1 activity was defined as that amount required to increase the basal activity of GST-PKBα by 1 unit of activity in one min.

GST-PKBα [2] = molecular target: T3, GST-PKBα (Homo sapiens, UniProt P31749); experiment: GST-PKBα activity and phosphorylation with lipids in the absence of PDK1; assay type: biochemical; details: same conditions as PDK1 activation
T3 construct: generate a full length cDNA encoding the PKBα gene; made in house; host or cells: human embryonic kidney 293 cells (pEBG2T), serum starved
Experimental: as §1, §2

GST-DSTPK61 = molecular target: T4, GST-DSTPK61 (Drosophila melanogaster, UniProt Q9W0V1); experiment: GST-DSTPK61 assay: activation and phosphorylation of GST-PKBα; assay type: biochemical; details: lipid 10 μM in PtdCho/PtdSer vesicles
T4 construct: residues 1-752 of DSTPK61 in E. coli as fusion proteins; made in house; host or cells: E. coli (pGEX-3X)
Experimental: as §3, §4

PKB = PKB (Homo sapiens, UniProt P31749); details: cited from earlier work
PDK1 [3] = experiment: Phosphorylation of GST-PKBα by PDK1 with [γ32P]ATP; assay type: biochemical, rabbit; details: lipid 10 μM in PtdCho/PtdSer vesicles
Experimental: Solutions were stored at 4° C. at concentrations 10-fold higher than those required in the assay and used within 2-4 days.
Phosphorylation of GST-PKB ? by PDK1. The incubations were identical to the Stage 1 described above except that [γ^32P] ATP (200-400 cpm/pmol) was used instead of unlabelled ATP. The reactions were terminated by making the solution 1% (by mass) in SDS. […] The Coomassie blue-staining bands corresponding to GST-PKBα were excised and the ^32P-radioactivity associated with each band was quantified.

GST-PKBα [4] = experiment: Activation of GST-PKBα after stimulation of transfected 293 cells; assay type: cell-based, human; details: versus unstimulated 293 cells
Text: Expression of GST-PKBα in 293 cells. The DNA sequence encoding PKBα was subcloned into the eukaryotic expression vector PEBG2T that has been used to overexpress GST-fusion proteins in eukaryotic cells under an EF1α promoter. A PCR reaction was set up to generate a full length cDNA encoding the PKBα gene with a BamH1site at the 5′ end of the cDNA that is in frame with the GST sequence of the PEBG2T vector and the ATG initiation codon of PKBα, and a KpnI site at the 3′ end, using the human PCMV5-HA-PKBα plasmid. The DNA sequence of the BamH1/KpnI cDNA fragment was checked and then subcloned into the unique BamH1/KpnI restriction sites on the pEBG 2T expression vector. In order to prepare GST-PKBα, 40, 10 cm diameter dishes of human embryonic kidney 293 cells were cultured and each dish transfected with 20 μg of GST PKBα expression construct using the modified calcium phosphate method described previously for overexpression of haemaglutinin tagged PKBα in 293 cells. […]

T1 sequence (P31749 whole entry partner, the tested form may be a part): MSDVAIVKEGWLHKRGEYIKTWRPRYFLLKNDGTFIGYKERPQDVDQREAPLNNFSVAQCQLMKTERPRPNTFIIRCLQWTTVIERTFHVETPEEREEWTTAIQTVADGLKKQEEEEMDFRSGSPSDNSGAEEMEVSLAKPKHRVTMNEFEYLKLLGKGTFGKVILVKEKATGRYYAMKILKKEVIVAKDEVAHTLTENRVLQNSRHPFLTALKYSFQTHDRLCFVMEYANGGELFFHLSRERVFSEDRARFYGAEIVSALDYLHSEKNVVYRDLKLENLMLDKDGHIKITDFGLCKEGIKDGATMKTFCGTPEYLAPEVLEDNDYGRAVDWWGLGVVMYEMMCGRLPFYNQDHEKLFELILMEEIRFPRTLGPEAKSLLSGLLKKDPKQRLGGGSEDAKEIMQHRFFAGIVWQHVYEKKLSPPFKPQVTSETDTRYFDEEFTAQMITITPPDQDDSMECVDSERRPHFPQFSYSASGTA
T1 sequence (O15530 1-450, stated change not applied): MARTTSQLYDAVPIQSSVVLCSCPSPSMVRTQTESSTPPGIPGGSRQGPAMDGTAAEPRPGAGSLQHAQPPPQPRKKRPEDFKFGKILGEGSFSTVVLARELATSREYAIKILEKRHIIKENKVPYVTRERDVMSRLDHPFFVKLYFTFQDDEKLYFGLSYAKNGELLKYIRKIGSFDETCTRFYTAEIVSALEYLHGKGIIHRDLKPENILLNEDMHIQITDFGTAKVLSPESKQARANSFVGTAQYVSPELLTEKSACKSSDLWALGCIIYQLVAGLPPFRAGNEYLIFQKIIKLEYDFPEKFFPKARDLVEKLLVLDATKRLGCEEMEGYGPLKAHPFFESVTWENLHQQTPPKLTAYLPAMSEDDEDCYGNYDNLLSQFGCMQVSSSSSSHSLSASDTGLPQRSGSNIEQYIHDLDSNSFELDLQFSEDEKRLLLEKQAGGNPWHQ
T4 sequence (Q9W0V1 85-836 Q200H/Q201E/Q317A/G443R): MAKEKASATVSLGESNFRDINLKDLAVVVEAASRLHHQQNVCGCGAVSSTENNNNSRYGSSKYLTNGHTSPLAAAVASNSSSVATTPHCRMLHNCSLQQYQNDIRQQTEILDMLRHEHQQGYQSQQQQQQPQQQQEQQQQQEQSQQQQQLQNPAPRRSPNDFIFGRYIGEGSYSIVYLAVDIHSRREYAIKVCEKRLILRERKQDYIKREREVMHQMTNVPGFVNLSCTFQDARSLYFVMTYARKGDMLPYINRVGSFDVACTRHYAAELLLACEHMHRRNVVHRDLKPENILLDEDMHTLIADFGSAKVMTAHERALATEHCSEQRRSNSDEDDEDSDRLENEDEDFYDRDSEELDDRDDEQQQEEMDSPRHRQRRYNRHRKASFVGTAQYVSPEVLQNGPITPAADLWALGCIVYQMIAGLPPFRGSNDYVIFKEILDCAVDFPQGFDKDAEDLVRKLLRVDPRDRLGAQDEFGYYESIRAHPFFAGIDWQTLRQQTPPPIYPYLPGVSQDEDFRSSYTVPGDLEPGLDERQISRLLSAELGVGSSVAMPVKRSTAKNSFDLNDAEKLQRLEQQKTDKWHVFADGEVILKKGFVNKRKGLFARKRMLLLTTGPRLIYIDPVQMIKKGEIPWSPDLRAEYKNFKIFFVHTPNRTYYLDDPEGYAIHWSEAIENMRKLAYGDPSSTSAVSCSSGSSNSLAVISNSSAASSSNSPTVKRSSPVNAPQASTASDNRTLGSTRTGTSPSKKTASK
PKB, sequence (P31749 whole entry, species assumed): as the sequence (P31749 whole entry partner, the tested form may be a part) above
T3 sequence (P31749 whole entry): as the sequence (P31749 whole entry partner, the tested form may be a part) above

order of level of activation of the 3-phosphoinositide-dependent kinase (most effective first) (PDK1 [1]) | activation of GST-PKBα by GST-ΔPH-PDK1 (in words) (GST-ΔPH-PDK1) | Compound | activation of PDK1 (in words) (PDK1 [1]) | fold-activation of GST-PKBα (PDK1 activity) (PDK1 [1]) | activation and phosphorylation of GST-PKBα by GST-PDK1 (in words) (GST-PDK1) | activation and phosphorylation of GST-PKBα by GST-DSTPK61 (in words) (GST-DSTPK61) | further results
2 | no activation | CCCCC/C=C\C/C=C\C/C=C\C/C=C\CCCC(=O)OC(COC(=O)CCCCCCCCCCCCCCCCC)COP(=O)(O)OC1C(O)C(OP(=O)(O)O)C(OP(=O)(O)O)C(OP(=O)(O)O)C1O (single isomer, unassigned) [Lipid 2, L-enantiomer of sn-1-stearoyl-2-arachidonyl PtdIns(3,4,5)P3] | no significant activation | – | – | – | fold-activation of GST-PKBα (PDK1 activity) (PDK1 [1]; 2-arachidonyl PtdIns(3,4,5)P3): 1.7 fold; activation of PDK1 (in words) (PDK1 [1]; listed as L-enantiomer of sn-1-stearoyl-2-arachidonyl PtdIns(3,4,5)P3): almost ineffective
– | activated more effectively | CCCCC/C=C\C/C=C\C/C=C\C/C=C\CCCC(=O)O[C@H](COC(=O)CCCCCCCCCCCCCCCCC)COP(=O)(O)O[C@H]1[C@H](O)[C@@H](OP(=O)(O)O)[C@H](OP(=O)(O)O)[C@@H](OP(=O)(O)O)[C@H]1O [Lipid 1, sn-1-stearoyl, 2-arachidonyl D-phosphatidylinositol 3,4,5-trisphosphate] | potently activated PDK1 | 13 fold | – | – | –
4 | very poor | CCCCCCCCCCCCCCCC(=O)OCC(COP(=O)(O)OC1C(O)C(O)C(OP(=O)(O)O)C(OP(=O)(O)O)C1O)OC(=O)CCCCCCCCCCCCCCC (stereo not shown) [Lipid 7, sn-1,2 di-palmitoyl PtdIns(3,4)P2] | as effective as sn-1,2-dipalmitoyl D-PtdIns(3,4,5)P3 | about 6 fold | as effective as sn-1,2-dipalmitoyl D-PtdIns(3,4,5)P3 | – | fold less effective in activating PDK1 than the sn-1-stearoyl-2-arachidonyl and sn-2-arachidonyl-3-stearoyl derivatives (PDK1 [1]): ~3 fold
– | – | Phosphatidylinositol 3,4-bisphosphate [PtdIns(3,4)P2] | only active in the presence of low micromolar concentrations | – | activated and phosphorylated GST-PKBα | activated and phosphorylated GST-PKBα | activation, inhibition or phosphorylation of GST-PKBα in the absence of PDK1 (GST-PKBα [2]): no effect; affinity of binding to PKB (in words) (PKB; via the N-terminal PH domain): micromolar affinity; fold enhancement of PDK1 activity in the presence of the inositol phospholipid (GST-PDK1; versus absence of PtdIns(3,4,5)P3 or PtdIns(3,4)P2): about 1000 fold
– | – | PtdIns(4,5)P2 [Lipid 9] | no significant activation | – | no activation or phosphorylation | no activation or phosphorylation | activation of PDK1 (in words) (PDK1 [1]; listed as PtdIns(4,5)P2): did not activate PDK1 at all; activation of PDK1 (in words) (PDK1 [1]; listed as lipid 9): did not activate PDK1; phosphorylation of GST-PKBα by PDK1 (in words) (PDK1 [3]): did not activate PDK1 or induce the phosphorylation; fold lower affinity of PKB than for PtdIns(3,4,5)P3 or PtdIns(3,4)P2 (PKB): 10 fold
– | – | insulin: insulin used to stimulate 293 cells | – | – | – | – | fold activation of GST-PKBα after stimulation of 293 cells (GST-PKBα [4]): 20 fold
